Consider eleven molecules from patent US20260364215A1, “Radiopharmaceutical Compositions Targeting Ephrin Type-A Receptor 2 and Uses Thereof” (PeptiDream Inc., priority 2022, published 2026).

Numbered stars: 1 amine (or outer) side, 2 acyl side, 3 side chain; on linkers, the order of the positions; unused ones are H or OH. Bridge positions count the residues as written; N and C are the ends. Square brackets hold non-standard residues; d marks the D form. Side chains are listed from the residue outwards. Peptide text beside a SMILES is read from it. * marks the point of attachment. DOTA(Lu) = O=C1CN2CCN3CCN(CC(=O)*)CCN(CC2)CC(=O)[O][Lu]([O]1)[O]C(=O)C3; NH(1-deoxy-D-glucityl) = OC[C@@H](O)[C@@H](O)[C@H](O)[C@@H](O)CN*; DOTA = O=C(O)CN1CCN(CC(=O)O)CCN(CC(=O)*)CCN(CC(=O)O)CC1; Trp(1-Me,7-Cl) = Cn1cc(C[C@H](N)C(=O)O)c2cccc(Cl)c21; dPhe(3-CONH2) = NC(=O)c1cccc(C[C@@H](N)C(=O)O)c1; Piperazinyl(4-CH2COOH) = O=C(O)CN1CCN(*)CC1; Trp(1-Me) = Cn1cc(C[C@H](N)C(=O)O)c2ccccc21; NMemTyr = CN[C@@H](Cc1cccc(O)c1)C(=O)O; NMe3Pal = CN[C@@H](Cc1cccnc1)C(=O)O; NMeF = CN[C@@H](Cc1ccccc1)C(=O)O; Gly(cBu) = N[C@H](C(=O)O)C1CCC1; NMeE = CN[C@@H](CCC(=O)O)C(=O)O; Aad = N[C@@H](CCCC(=O)O)C(=O)O; NMeN = CN[C@@H](CC(N)=O)C(=O)O; CO = O=C([*:1])[*:2]

T1 sequence (P29317 24-534 limits assumed): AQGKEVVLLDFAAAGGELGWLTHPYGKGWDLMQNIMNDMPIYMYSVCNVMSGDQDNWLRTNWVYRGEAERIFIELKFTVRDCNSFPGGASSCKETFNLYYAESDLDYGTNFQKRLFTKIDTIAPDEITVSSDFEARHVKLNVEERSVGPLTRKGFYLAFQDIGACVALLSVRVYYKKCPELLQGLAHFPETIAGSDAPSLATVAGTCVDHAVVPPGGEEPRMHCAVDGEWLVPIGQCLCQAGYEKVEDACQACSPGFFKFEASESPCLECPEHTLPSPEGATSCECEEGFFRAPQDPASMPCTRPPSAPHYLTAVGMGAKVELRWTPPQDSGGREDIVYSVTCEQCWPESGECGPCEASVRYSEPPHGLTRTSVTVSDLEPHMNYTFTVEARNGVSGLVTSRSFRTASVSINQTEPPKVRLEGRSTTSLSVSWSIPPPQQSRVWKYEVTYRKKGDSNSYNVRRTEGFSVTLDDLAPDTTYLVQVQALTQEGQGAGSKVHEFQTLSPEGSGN

The first test addresses T1, Recombinant Human EphA2 Fc Protein (Homo sapiens, UniProt P29317).
T1 construct: purchased Elabscience
The test can be described thus: Interaction analysis (kinetics, KD) of peptides and conjugates against EphA2 by SPR, Biacore T200, single-cycle kinetics (Examples B15 and B22). The class given is binding.
Conditions: not given
The method, boiled down: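 Biacore T200 SPR with Fc-tagged human EphA2 captured via anti-human antibody; running buffer HBS-P+ pH 7.4 with 1% DMSO, 25 °C. Five serial dilutions of peptide or conjugate run by single-cycle kinetics; KD from ka and kd after baseline subtraction.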
(In general: Surface plasmon resonance follows binding to a sensor surface in real time, without labels.)
Take `CC(C)C[C@@H]1NC(=O)[C@H](CC(N)=O)NC(=O)[C@H](Cc2cccnc2)N(C)C(=O)[C@@H](Cc2cccc(C(N)=O)c2)NC(=O)CSC[C@@H](C(N)=O)NC(=O)[C@H](CCCC(N)=O)NC(=O)[C@H]([C@@H](C)O)NC(=O)[C@H](Cc2cn(C)c3ccccc23)NC(=O)[C@H](CCCCNC(=O)CN2CCN3CCN4CCN(CC2)CC(=O)[O][Lu]([O]C(=O)C3)[O]C(=O)C4)NC(=O)[C@H](Cc2cn(C)c3c(Cl)cccc23)NC(=O)[C@H](CCC(=O)O)N(C)C(=O)[C@H](CCCC(N)=O)NC1=O` [PDC_EphA2-00026718] ({CH2CO}-[dPhe(3-CONH2)][NMe3Pal]NL[Aad](NH2)[NMeE][Trp(1-Me,7-Cl)]K(DOTA(Lu))[Trp(1-Me)]T[Aad](NH2)C-NH2; thioether N-12): the equilibrium dissociation constant (Kd) (in general, the equilibrium constant for the complex coming apart) was under 1 nM.

As for `C[C@@H](O)[C@@H]1NC(=O)[C@H](Cc2cn(C)c3ccccc23)NC(=O)[C@H](CCCCNC(=O)N2CCN(CC(=O)O)CC2)NC(=O)[C@H](Cc2cn(C)c3c(Cl)cccc23)NC(=O)[C@H](CCC(=O)O)N(C)C(=O)[C@H](CCCC(N)=O)NC(=O)[C@H](C2CCC2)NC(=O)[C@H](CC(N)=O)NC(=O)[C@H](Cc2cccc(O)c2)N(C)C(=O)[C@@H](Cc2cccc(C(N)=O)c2)NC(=O)CSC[C@@H](C(=O)N[C@H](CCCCNC(=O)CN2CCN3CCN4CCN(CC2)CC(=O)[O][Lu]([O]C(=O)C3)[O]C(=O)C4)C(=O)O)NC(=O)[C@H](CCCC(N)=O)NC1=O` [PDC_EphA2-00026775] ({CH2CO}-[dPhe(3-CONH2)][NMemTyr]N[Gly(cBu)][Aad](NH2)[NMeE][Trp(1-Me,7-Cl)]K([CO-Piperazinyl(4-CH2COOH)])[Trp(1-Me)]T[Aad](NH2)C[dK](DOTA(Lu))-OH; thioether N-12), the Kd was under 1 nM.

The test is the same for the next values; noted with them: conjugates, Biacore T200 according to Example B15, Table B16; read-out: SPR Kd.
As to `CC(C)C[C@@H]1NC(=O)[C@H](CC(N)=O)NC(=O)[C@H](Cc2cccnc2)N(C)C(=O)[C@@H](Cc2cccc(C(N)=O)c2)NC(=O)CSC[C@@H](C(N)=O)NC(=O)[C@H](CCCCNC(=O)CN2CCN(CC(=O)O)CCN(CC(=O)O)CCN(CC(=O)O)CC2)NC(=O)[C@H]([C@@H](C)O)NC(=O)[C@H](Cc2cn(C)c3ccccc23)NC(=O)[C@H](CCC(=O)NC[C@H](O)[C@@H](O)[C@H](O)[C@H](O)CO)NC(=O)[C@H](Cc2cn(C)c3c(Cl)cccc23)NC(=O)[C@H](CC(N)=O)N(C)C(=O)[C@H](CCCC(N)=O)NC1=O.[Lu+3]` [PDC_EphA2-00026716] ({CH2CO}-[dPhe(3-CONH2)][NMe3Pal]NL[Aad](NH2)[NMeN][Trp(1-Me,7-Cl)]E(NH(1-deoxy-D-glucityl))[Trp(1-Me)]TK(DOTA)C-NH2; thioether N-12), the Kd is under 1 nM.

As to `CC(C)C[C@@H]1NC(=O)[C@H](CC(N)=O)NC(=O)[C@H](Cc2cccnc2)N(C)C(=O)[C@@H](Cc2cccc(C(N)=O)c2)NC(=O)CSC[C@@H](C(N)=O)NC(=O)[C@H](CCCC(N)=O)NC(=O)[C@H]([C@@H](C)O)NC(=O)[C@H](Cc2cn(C)c3ccccc23)NC(=O)[C@H](CCCCNC(=O)N2CCN(CC(=O)O)CC2)NC(=O)[C@H](Cc2cn(C)c3c(Cl)cccc23)NC(=O)[C@H](CCC(=O)O)N(C)C(=O)[C@H](CCCCNC(=O)CN2CCN(CC(=O)O)CCN(CC(=O)O)CCN(CC(=O)O)CC2)NC1=O.[Lu+3]` [PDC_EphA2-00026717] ({CH2CO}-[dPhe(3-CONH2)][NMe3Pal]NLK(DOTA)[NMeE][Trp(1-Me,7-Cl)]K([CO-Piperazinyl(4-CH2COOH)])[Trp(1-Me)]T[Aad](NH2)C-NH2; thioether N-12), the Kd is under 1 nM.

In the case of `CC(C)C[C@@H]1NC(=O)[C@H](CC(N)=O)NC(=O)[C@H](Cc2cccnc2)N(C)C(=O)[C@@H](Cc2cccc(C(N)=O)c2)NC(=O)CSC[C@@H](C(N)=O)NC(=O)[C@H](CCCCNC(=O)CN2CCN(CC(=O)O)CCN(CC(=O)O)CCN(CC(=O)O)CC2)NC(=O)[C@H]([C@@H](C)O)NC(=O)[C@H](Cc2cn(C)c3ccccc23)NC(=O)[C@H](CCCCNC(=O)N2CCN(CC(=O)O)CC2)NC(=O)[C@H](Cc2cn(C)c3c(Cl)cccc23)NC(=O)[C@H](CCC(=O)O)N(C)C(=O)[C@H](CCCC(N)=O)NC1=O.[Lu+3]` [PDC_EphA2-00026719] ({CH2CO}-[dPhe(3-CONH2)][NMe3Pal]NL[Aad](NH2)[NMeE][Trp(1-Me,7-Cl)]K([CO-Piperazinyl(4-CH2COOH)])[Trp(1-Me)]TK(DOTA)C-NH2; thioether N-12), the Kd is under 1 nM.

Take `CC(C)C[C@@H]1NC(=O)[C@H](CC(N)=O)NC(=O)[C@H](Cc2cccnc2)N(C)C(=O)[C@@H](C)NC(=O)CSC[C@@H](C(=O)N[C@H](CCCCNC(=O)CN2CCN(CC(=O)O)CCN(CC(=O)O)CCN(CC(=O)O)CC2)C(N)=O)NC(=O)[C@H](CCCC(N)=O)NC(=O)[C@H]([C@@H](C)O)NC(=O)[C@H](Cc2cn(C)c3ccccc23)NC(=O)[C@H](CCCCNC(=O)N2CCN(CC(=O)O)CC2)NC(=O)[C@H](Cc2cn(C)c3ccccc23)NC(=O)[C@H](CCC(=O)O)N(C)C(=O)[C@H](CCCC(N)=O)NC1=O.[Lu+3]` [PDC_EphA2-00026772] ({CH2CO}-[dA][NMe3Pal]NL[Aad](NH2)[NMeE][Trp(1-Me)]K([CO-Piperazinyl(4-CH2COOH)])[Trp(1-Me)]T[Aad](NH2)C[dK](DOTA)-NH2; thioether N-12): the equilibrium dissociation constant (Kd) is under 1 nM.

As for `CC(C)[C@@H]1NC(=O)[C@H](Cc2cn(C)c3ccccc23)NC(=O)[C@H](CC(N)=O)N(C)C(=O)[C@H](CCCC(N)=O)NC(=O)[C@H](C2CCC2)NC(=O)[C@H](CC(N)=O)NC(=O)[C@H](Cc2ccccc2)N(C)C(=O)[C@@H](C)NC(=O)CSC[C@@H](C(=O)N[C@H](CCCCNC(=O)CN2CCN(CC(=O)O)CCN(CC(=O)O)CCN(CC(=O)O)CC2)C(=O)O)NC(=O)[C@H](CCCC(N)=O)NC(=O)[C@H]([C@@H](C)O)NC(=O)[C@H](Cc2cn(C)c3ccccc23)NC1=O.[Lu+3]` [PDC_EphA2-00026773] ({CH2CO}-[dA][NMeF]N[Gly(cBu)][Aad](NH2)[NMeN][Trp(1-Me)]V[Trp(1-Me)]T[Aad](NH2)C[dK](DOTA)-OH; thioether N-12), the dissociation constant Kd was under 1 nM.

With `C[C@@H](O)[C@@H]1NC(=O)[C@H](Cc2cn(C)c3ccccc23)NC(=O)[C@H](CCC(=O)NC[C@H](O)[C@@H](O)[C@H](O)[C@H](O)CO)NC(=O)[C@H](Cc2cn(C)c3c(Cl)cccc23)NC(=O)[C@H](Cc2cccnc2)N(C)C(=O)[C@H](CCCC(N)=O)NC(=O)[C@H](C2CCC2)NC(=O)[C@H](CC(N)=O)NC(=O)[C@H](Cc2cccnc2)N(C)C(=O)[C@@H](Cc2cccc(C(N)=O)c2)NC(=O)CSC[C@@H](C(=O)N[C@H](CCCCNC(=O)CN2CCN(CC(=O)O)CCN(CC(=O)O)CCN(CC(=O)O)CC2)C(=O)O)NC(=O)[C@H](CCCC(N)=O)NC1=O.[Lu+3]` [PDC_EphA2-00026774] ({CH2CO}-[dPhe(3-CONH2)][NMe3Pal]N[Gly(cBu)][Aad](NH2)[NMe3Pal][Trp(1-Me,7-Cl)]E(NH(1-deoxy-D-glucityl))[Trp(1-Me)]T[Aad](NH2)C[dK](DOTA)-OH; thioether N-12), the equilibrium dissociation constant (Kd) was under 1 nM.

Consider `C[C@H]1NC(=O)CSC[C@@H](C(=O)N[C@H](CCC(=O)O)C(=O)O)NC(=O)[C@H](CCCC(N)=O)NC(=O)[C@H]([C@@H](C)O)NC(=O)[C@H](Cc2cn(C)c3ccccc23)NC(=O)[C@H](CCCCNC(=O)N2CCN(CC(=O)O)CC2)NC(=O)[C@H](Cc2cn(C)c3c(Cl)cccc23)NC(=O)[C@H](CCC(=O)O)N(C)C(=O)[C@H](CCCCNC(=O)CN2CCN(CC(=O)O)CCN(CC(=O)O)CCN(CC(=O)O)CC2)NC(=O)[C@H](C2CCC2)NC(=O)[C@H](CC(N)=O)NC(=O)[C@H](Cc2cccnc2)N(C)C1=O.[Lu+3]` [PDC_EphA2-00027103] ({CH2CO}-[dA][NMe3Pal]N[Gly(cBu)]K(DOTA)[NMeE][Trp(1-Me,7-Cl)]K([CO-Piperazinyl(4-CH2COOH)])[Trp(1-Me)]T[Aad](NH2)C[dE]-OH; thioether N-12), for which the Kd is under 1 nM.

For the molecule `C[C@@H](O)[C@@H]1NC(=O)[C@H](Cc2cn(C)c3ccccc23)NC(=O)[C@H](CCCCNC(=O)N2CCN(CC(=O)O)CC2)NC(=O)[C@H](Cc2cn(C)c3c(Cl)cccc23)NC(=O)[C@H](CCC(=O)O)N(C)C(=O)[C@H](CCCCNC(=O)CN2CCN(CC(=O)O)CCN(CC(=O)O)CCN(CC(=O)O)CC2)NC(=O)[C@H](C2CCC2)NC(=O)[C@H](CC(N)=O)NC(=O)[C@H](Cc2cccnc2)N(C)C(=O)[C@@H](Cc2cccc(C(N)=O)c2)NC(=O)CSC[C@@H](C(=O)N[C@H](CCC(=O)O)C(=O)O)NC(=O)[C@H](CCCC(N)=O)NC1=O.[Lu+3]` [PDC_EphA2-00027104] ({CH2CO}-[dPhe(3-CONH2)][NMe3Pal]N[Gly(cBu)]K(DOTA)[NMeE][Trp(1-Me,7-Cl)]K([CO-Piperazinyl(4-CH2COOH)])[Trp(1-Me)]T[Aad](NH2)C[dE]-OH; thioether N-12), the Kd is under 1 nM.

Consider `C[C@H]1NC(=O)CSC[C@@H](C(=O)N[C@H](CCC(=O)O)C(N)=O)NC(=O)[C@H](CCCC(N)=O)NC(=O)[C@H]([C@@H](C)O)NC(=O)[C@H](Cc2cn(C)c3ccccc23)NC(=O)[C@H](CCCCNC(=O)N2CCN(CC(=O)O)CC2)NC(=O)[C@H](Cc2cn(C)c3c(Cl)cccc23)NC(=O)[C@H](CCC(=O)O)N(C)C(=O)[C@H](CCCCNC(=O)CN2CCN(CC(=O)O)CCN(CC(=O)O)CCN(CC(=O)O)CC2)NC(=O)[C@H](C2CCC2)NC(=O)[C@H](CC(N)=O)NC(=O)[C@H](Cc2cccnc2)N(C)C1=O.[Lu+3]` [PDC_EphA2-00027105] ({CH2CO}-[dA][NMe3Pal]N[Gly(cBu)]K(DOTA)[NMeE][Trp(1-Me,7-Cl)]K([CO-Piperazinyl(4-CH2COOH)])[Trp(1-Me)]T[Aad](NH2)C[dE]-NH2; thioether N-12), for which the Kd was under 1 nM.
